Source: PubChem BioAssay AID1259407 (Chemical Carcinogenesis Research Information System (CCRIS), 2018)
The source made the active and inactive calls. How the calls were made is not given here.

System: CCRIS mutagenicity, Ames/micronucleus/aberration tests
Experiment: CCRIS mutagenicity studies

Measured: mutagenic call

COc1ccc(N)cc1
inactive: Test System: AMES SALMONELLA TYPHIMURIUM, Strain/Indicator: TA98, Metabolic Activation: HAMSTER, LIVER, S-9, AROCLOR 1254 (30%), Method: PREINCUBATION inactive; negative | Test System: AMES SALMONELLA TYPHIMURIUM, Strain/Indicator: TA98, Metabolic Activation: HAMSTER, LIVER, S-9, AROCLOR 1254, Method: STANDARD PLATE inactive; negative | Test System: AMES SALMONELLA TYPHIMURIUM, Strain/Indicator: TA98, Metabolic Activation: HAMSTER, LIVER, S-9, Method: STANDARD PLATE inactive; negative | Test System: AMES SALMONELLA TYPHIMURIUM, Strain/Indicator: TA98, Metabolic Activation: MOUSE, LIVER, S-9, AROCLOR 1254, Method: STANDARD PLATE inactive; negative | Test System: AMES SALMONELLA TYPHIMURIUM, Strain/Indicator: TA98, Metabolic Activation: MOUSE, LIVER, S-9, Method: STANDARD PLATE inactive; negative | Test System: AMES SALMONELLA TYPHIMURIUM, Strain/Indicator: TA98, Metabolic Activation: NONE, Method: PREINCUBATION inactive; negative | Test System: AMES SALMONELLA TYPHIMURIUM, Strain/Indicator: TA98, Metabolic Activation: NONE, Method: STANDARD PLATE inactive; negative | Test System: AMES SALMONELLA TYPHIMURIUM, Strain/Indicator: TA98, Metabolic Activation: RAT LIVER S-9, PHENOBARBITAL AND BETA-NAPHTHOFLAVONE, Method: PREINCUBATION inactive; negative | Test System: AMES SALMONELLA TYPHIMURIUM, Strain/Indicator: TA98, Metabolic Activation: RAT, LIVER, S-9, AROCLOR 1254 (30%), Method: PREINCUBATION inactive; negative | Test System: AMES SALMONELLA TYPHIMURIUM, Strain/Indicator: TA98, Metabolic Activation: RAT, LIVER, S-9, AROCLOR 1254, Method: STANDARD PLATE inactive; negative | Test System: AMES SALMONELLA TYPHIMURIUM, Strain/Indicator: TA98, Metabolic Activation: RAT, LIVER, S-9, Method: STANDARD PLATE inactive; negative | Test System: AMES SALMONELLA TYPHIMURIUM, Strain/Indicator: TA100, Metabolic Activation: NONE, Method: PREINCUBATION inactive; negative | Test System: AMES SALMONELLA TYPHIMURIUM, Strain/Indicator: TA100, Metabolic Activation: NONE, Method: STANDARD PLATE inactive; negative | Test System: AMES SALMONELLA TYPHIMURIUM, Strain/Indicator: TA100, Metabolic Activation: RAT LIVER S-9, PHENOBARBITAL AND BETA-NAPHTHOFLAVONE, Method: PREINCUBATION inactive; negative | Test System: AMES SALMONELLA TYPHIMURIUM, Strain/Indicator: TA100, Metabolic Activation: RAT, LIVER, S-9, AROCLOR 1254 (30%), Method: PREINCUBATION inactive; negative | Test System: AMES SALMONELLA TYPHIMURIUM, Strain/Indicator: TA102, Metabolic Activation: NONE, Method: PREINCUBATION inactive; negative | Test System: AMES SALMONELLA TYPHIMURIUM, Strain/Indicator: TA102, Metabolic Activation: NONE, Method: STANDARD PLATE inactive; negative | Test System: AMES SALMONELLA TYPHIMURIUM, Strain/Indicator: TA102, Metabolic Activation: RAT LIVER S-9, PHENOBARBITAL AND BETA-NAPHTHOFLAVONE, Method: PREINCUBATION inactive; negative | Test System: AMES SALMONELLA TYPHIMURIUM, Strain/Indicator: TA104, Metabolic Activation: NONE, Method: PREINCUBATION inactive; negative | Test System: AMES SALMONELLA TYPHIMURIUM, Strain/Indicator: TA104, Metabolic Activation: RAT LIVER S-9, PHENOBARBITAL AND BETA-NAPHTHOFLAVONE, Method: PREINCUBATION inactive; negative | Test System: AMES SALMONELLA TYPHIMURIUM, Strain/Indicator: TA1535, Metabolic Activation: HAMSTER, LIVER, S-9, AROCLOR 1254, Method: STANDARD PLATE inactive; negative | Test System: AMES SALMONELLA TYPHIMURIUM, Strain/Indicator: TA1535, Metabolic Activation: HAMSTER, LIVER, S-9, Method: STANDARD PLATE inactive; negative | Test System: AMES SALMONELLA TYPHIMURIUM, Strain/Indicator: TA1535, Metabolic Activation: MOUSE, LIVER, S-9, AROCLOR 1254, Method: STANDARD PLATE inactive; negative | Test System: AMES SALMONELLA TYPHIMURIUM, Strain/Indicator: TA1535, Metabolic Activation: MOUSE, LIVER, S-9, Method: STANDARD PLATE inactive; negative | Test System: AMES SALMONELLA TYPHIMURIUM, Strain/Indicator: TA1535, Metabolic Activation: NONE, Method: PREINCUBATION inactive; negative | Test System: AMES SALMONELLA TYPHIMURIUM, Strain/Indicator: TA1535, Metabolic Activation: NONE, Method: STANDARD PLATE inactive; negative | Test System: AMES SALMONELLA TYPHIMURIUM, Strain/Indicator: TA1535, Metabolic Activation: RAT LIVER S-9, PHENOBARBITAL AND BETA-NAPHTHOFLAVONE, Method: PREINCUBATION inactive; negative | Test System: AMES SALMONELLA TYPHIMURIUM, Strain/Indicator: TA1535, Metabolic Activation: RAT, LIVER, S-9, AROCLOR 1254, Method: STANDARD PLATE inactive; negative | Test System: AMES SALMONELLA TYPHIMURIUM, Strain/Indicator: TA1535, Metabolic Activation: RAT, LIVER, S-9, Method: STANDARD PLATE inactive; negative | Test System: AMES SALMONELLA TYPHIMURIUM, Strain/Indicator: TA1537, Metabolic Activation: HAMSTER, LIVER, S-9, AROCLOR 1254, Method: STANDARD PLATE inactive; negative | Test System: AMES SALMONELLA TYPHIMURIUM, Strain/Indicator: TA1537, Metabolic Activation: HAMSTER, LIVER, S-9, Method: STANDARD PLATE inactive; negative | Test System: AMES SALMONELLA TYPHIMURIUM, Strain/Indicator: TA1537, Metabolic Activation: MOUSE, LIVER, S-9, AROCLOR 1254, Method: STANDARD PLATE inactive; negative | Test System: AMES SALMONELLA TYPHIMURIUM, Strain/Indicator: TA1537, Metabolic Activation: NONE, Method: PREINCUBATION inactive; negative | Test System: AMES SALMONELLA TYPHIMURIUM, Strain/Indicator: TA1537, Metabolic Activation: NONE, Method: STANDARD PLATE inactive; negative | Test System: AMES SALMONELLA TYPHIMURIUM, Strain/Indicator: TA1537, Metabolic Activation: RAT LIVER S-9, PHENOBARBITAL AND BETA-NAPHTHOFLAVONE, Method: PREINCUBATION inactive; negative | Test System: AMES SALMONELLA TYPHIMURIUM, Strain/Indicator: TA1537, Metabolic Activation: RAT, LIVER, S-9, AROCLOR 1254, Method: STANDARD PLATE inactive; negative | Test System: AMES SALMONELLA TYPHIMURIUM, Strain/Indicator: TA1537, Metabolic Activation: RAT, LIVER, S-9, Method: STANDARD PLATE inactive; negative | Test System: AMES SALMONELLA TYPHIMURIUM, Strain/Indicator: TA1538, Metabolic Activation: HAMSTER, LIVER, S-9, AROCLOR 1254, Method: STANDARD PLATE inactive; negative | Test System: AMES SALMONELLA TYPHIMURIUM, Strain/Indicator: TA1538, Metabolic Activation: HAMSTER, LIVER, S-9, Method: STANDARD PLATE inactive; negative | Test System: AMES SALMONELLA TYPHIMURIUM, Strain/Indicator: TA1538, Metabolic Activation: MOUSE, LIVER, S-9, AROCLOR 1254, Method: STANDARD PLATE inactive; negative | Test System: AMES SALMONELLA TYPHIMURIUM, Strain/Indicator: TA1538, Metabolic Activation: MOUSE, LIVER, S-9, Method: STANDARD PLATE inactive; negative | Test System: AMES SALMONELLA TYPHIMURIUM, Strain/Indicator: TA1538, Metabolic Activation: NONE, Method: STANDARD PLATE inactive; negative | Test System: AMES SALMONELLA TYPHIMURIUM, Strain/Indicator: TA1538, Metabolic Activation: RAT, LIVER, S-9, AROCLOR 1254, Method: STANDARD PLATE inactive; negative | Test System: AMES SALMONELLA TYPHIMURIUM, Strain/Indicator: TA1538, Metabolic Activation: RAT, LIVER, S-9, Method: STANDARD PLATE inactive; negative | Test System: AMES SALMONELLA TYPHIMURIUM, Strain/Indicator: TA2638, Metabolic Activation: NONE, Method: STANDARD PLATE inactive; negative | Test System: E. COLI, Strain/Indicator: WP2 (PKM101), Metabolic Activation: NONE, Method: STANDARD PLATE inactive; negative | Test System: E. COLI, Strain/Indicator: WP2 UVRA, Metabolic Activation: HAMSTER, LIVER, S-9, AROCLOR 1254, Method: STANDARD PLATE inactive; negative | Test System: E. COLI, Strain/Indicator: WP2 UVRA, Metabolic Activation: HAMSTER, LIVER, S-9, Method: STANDARD PLATE inactive; negative | Test System: E. COLI, Strain/Indicator: WP2 UVRA, Metabolic Activation: MOUSE, LIVER, S-9, AROCLOR 1254, Method: STANDARD PLATE inactive; negative | Test System: E. COLI, Strain/Indicator: WP2 UVRA, Metabolic Activation: MOUSE, LIVER, S-9, Method: STANDARD PLATE inactive; negative | Test System: E. COLI, Strain/Indicator: WP2 UVRA, Metabolic Activation: NONE, Method: STANDARD PLATE inactive; negative | Test System: E. COLI, Strain/Indicator: WP2 UVRA, Metabolic Activation: RAT, LIVER, S-9, AROCLOR 1254, Method: STANDARD PLATE inactive; negative | Test System: E. COLI, Strain/Indicator: WP2 UVRA, Metabolic Activation: RAT, LIVER, S-9, Method: STANDARD PLATE inactive; negative | Test System: E.COLI, Strain/Indicator: WP2UVRA/PKM101, Metabolic Activation: RAT LIVER S-9, PHENOBARBITAL AND BETA-NAPHTHOFLAVONE, Method: PREINCUBATION inactive; negative | Test System: E.COLI, Strain/Indicator: WP2UVRA, Metabolic Activation: NONE, Method: PREINCUBATION inactive; negative
active: End Point: IN VITRO CHROMOSOMAL ABERRATIONS, Test System: CHINESE HAMSTER OVARY CELLS, Metabolic Activation: NONE active; positive | End Point: IN VITRO CHROMOSOMAL ABERRATIONS, Test System: CHINESE HAMSTER OVARY CELLS, Metabolic Activation: RAT, LIVER, S-9, AROCLOR 1254 active; positive | End Point: MORPHOLOGICAL TRANSFORMATION, Test System: SYRIAN HAMSTER EMBRYO CELLS (SHE), Metabolic Activation: NONE active; positive | Test System: AMES SALMONELLA TYPHIMURIUM, Strain/Indicator: TA100, Metabolic Activation: HAMSTER, LIVER, S-9, AROCLOR 1254 (30%), Method: PREINCUBATION active; positive | Test System: AMES SALMONELLA TYPHIMURIUM, Strain/Indicator: YG1029, Metabolic Activation: HAMSTER, LIVER, S-9, Method: PREINCUBATION active; positive | Test System: AMES SALMONELLA TYPHIMURIUM, Strain/Indicator: YG1029, Metabolic Activation: NONE, Method: PREINCUBATION active; positive | Test System: AMES SALMONELLA TYPHIMURIUM, Strain/Indicator: YG1029, Metabolic Activation: RAT, SEMINAL VESICLE, MICROSOMES, Method: PREINCUBATION active; positive | Test System: E. COLI, Strain/Indicator: WP2 UVRA (PKM101), Metabolic Activation: NONE, Method: STANDARD PLATE active; positive | Test System: MOUSE LYMPHOMA, Strain/Indicator: L5178Y (TK+/TK-), Metabolic Activation: NONE, Method: SUSPENSION/PLATE active; positive | Test System: MOUSE LYMPHOMA, Strain/Indicator: L5178Y (TK+/TK-), Metabolic Activation: RAT, LIVER, S-9, AROCLOR 1254, Method: SUSPENSION/PLATE active; positive
